Laboratory results: patent US5691351A, “Bis-(Heteroarylmethoxyphenyl)cycloalkyl carboxylates as inhibitors of leukotriene biosynthesis” (Abbott Laboratories, priority 1996, dated 1997)
Where a name gives a salt, the structure may show the parent alone. Read-outs that look alike come from different tables or passages of the source.

Legend:
[1] = test system: Calcium Ionophore Stimulated Leukotriene Formation in Human Polymorphonuclear Leukocytes; assay: Calcium ionophore-induced LTB4 formation in human polymorphonuclear leukocytes (Lipoxygenase Inhibition Determination); assay type: cell-based; conditions: human PMNL, 15 min preincubation, calcium ionophore 8.3 μM, 10 min at 37° C., LTB4 by enzyme-linked immunoassay or HPLC, read-out: Inhibitory Potencies Against Calcium Ionophore Stimulated Leukotriene Formation in Human Polymorphonuclear Leukocytes, IC50
Description: Leukotriene biosynthesis inhibitory activity of representative compounds of the present invention was evaluated in an assay involving calcium ionophore-induced LTB4 expressed in human polymorphornuclear leukocytes (PMNL). Human PMNL isolated from heparinized (20 USP units/mL) venous blood (25 mL) obtained from healthy volunteers was layered over an equal volume of Ficoll-Hypaque Mono-Poly Resolving Medium (ICN Flow, Costa Mesa, Calif.) and centrifugated at 400×g for 40 min at 20° C. The PMNL was collected, erythrocytes lysed and washed 2× and suspended at 1.0×10^7 cells/mL in Earle's balanced salt solution with 17 mM Earle's HEPES. […] Incubations were stopped with the addition of two volumes of ice-cold methanol followed by centrifuging the cell suspensions at 4° C. for 10 min at 450×g. The mount of LTB4 in the methanol extract was analyzed by enzyme-linked immunoassay or by HPLC analysis.

leukotriene synthesis = conditions: Bioorganic and Medicinal Chemistry Letters, 1: 645-648 (1991); cited from earlier work

SMILES | IC50 [1] | other results
O=C(O)C1CCC(c2ccc(OCc3ccc4ccccc4n3)cc2)(c2ccc(OCc3ccc4ccccc4n3)cc2)CC1 [Example 1, 4,4-bis-(4(2-quinolylmethoxy)phenyl)cyclohexane carboxylic acid] | 59 nM | 
O=C(O)C1CCC(c2ccc(OCc3ccc4ccccc4n3)cc2)(c2ccc(OCc3ccc4ccccc4n3)cc2)CC1 [Example 2, 4,4-bis-(4-(2-quinolylmethoxy)phenyl)cyclohexane carboxylic acid sodium salt] |  | IC50 ([1]; sodium salt): 47 nM
CC(=NOC1CCC(c2ccc(OCc3ccc4ccccc4n3)cc2)(c2ccc(OCc3ccc4ccccc4n3)cc2)CC1)C(=O)O [Example 5, sodium salt] | 37 nM | 
O=C(O)CSC(CCCc1ccc(Cl)cc1)c1ccc(OCc2ccc3ccccc3n2)cc1 [L-674,636, {[4-(4-chlorophenyl)-1-[4-(2-quinolylmethoxy)phenyl]-butyl]thio}acetic acid] |  | leukotriene synthesis inhibitor (in words) (leukotriene synthesis): potent and orally active leukotriene synthesis inhibitor
